Source: patent US6806265B2, “Non-nucleoside reverse transcriptase inhibitors” (priority 2002, dated 2004)
Where two headings read alike, the source gives them in different places.

Experiments:
[1] = target: T1, HIV-1 RT double mutant K103N/Y181C (Human immunodeficiency virus type 1 group M subtype B, UniProt P03366, K702N/Y780C); assay: biochemical
T1 construct: HIV-1 wild type reverse transcriptase as well as the clinically significant double mutant K103N/Y181C
Experimental: (§1) Utilizing the Reverse Transcriptase (RT) Assay described below, compounds were tested for their ability to inhibit the RNA-dependent DNA polymerase activity of HIV-1 RT. Certain specific compounds described in the Examples and in Tables 1-4, were so tested. The results of this testing appear in Table 5 as ranges of IC50 (nM) and EC50 (nM).
(§2) Reverse Transcriptase (RT) Assays

[2] = target: T2, HIV-1 wild type reverse transcriptase (Human immunodeficiency virus type 1 group M subtype B, UniProt P03366); assay: biochemical; settings: wild type RT; read-out: IC50 WT RT
T2 construct: HIV-1 wild type reverse transcriptase
Experimental: as §1, §2

[3] = test system: HIV-1 wild type; assay: microbe, parasite or virus in culture; type: cell-based
[4] = test system: HIV-1 double mutant K103N/Y181C; assay: microbe, parasite or virus in culture; type: cell-based
[5] = Human immunodeficiency virus 1, wild type, read-out: EC50 WT RT
[6] = Human immunodeficiency virus 1, read-out: EC50 K103N/Y181C (nM)
[7] = RT double mutant K103N/Y181C, read-out: IC50 K103N/Y181C
[8] = wild type, read-out: EC50 WT RT
[9] = double mutant K103N/Y181C, read-out: EC50 K103N/Y181C
[10] = Human immunodeficiency virus 1, read-out: EC50 WT RT (nM)

Structure (SMILES) | IC50 [1] [µM] | IC50 [2] [µM] | EC50 [3, 5] [nM] | EC50 [4, 6] [nM] | IC50 [1, 7] [µM] | EC50 [3, 8] [nM] | EC50 [4, 9] [nM] | EC50 [3, 10] [nM]
CCN1c2ncc(CCOc3ccc(-c4cc[n+]([O-])cc4)cc3)cc2C(=O)N(C)c2cccnc21 [Entry 1091, 11-Ethyl-5,11-dihydro-5-methyl-8-{2-[4-(1-oxido-4-pyridinyl)phenoxy]ethyl}-6H-dipyrido[3,2-b:2′,3′-e][1,4]diazepin-6-one] | < 0.05 | < 0.05 | < 10 | < 10 | – | – | – | –
CCN1c2ncc(CCOc3ccc(S(=O)(=O)Nc4ccc(C(=O)O)cc4)cc3C)cc2C(=O)N(C)c2cccnc21 [Entry 3030] | – | < 0.05 | – | – | < 0.05 | > 50 | > 50 | –
CCN1c2ncccc2NC(=O)c2cc(CCOc3ccc(-c4ccc(CC(=O)O)cc4)cc3C)cnc21 [Entry 1058] | – | < 0.05 | – | – | 0.05 to 0.1 | < 10 | 10 to 50 | –
CCN1c2ncc(CCOc3ccc(C(=O)Nc4ccc[n+]([O-])c4)cc3C)cc2C(=O)Nc2c(C)ccnc21 [Entry 3020] | – | < 0.05 | – | – | < 0.05 | < 10 | < 10 | –
CCN1c2ncc(CCOc3ccc(-c4ccc(CC(=O)O)cc4)cc3C)cc2C(=O)N(C)c2cccnc21 [Entry 1008] | – | < 0.05 | – | – | < 0.05 | < 10 | < 10 | –
CCN1c2ncc(CCOc3ccc(-c4ccc(C(=O)O)cc4)cc3C)cc2C(=O)N(C)c2cccnc21 [Entry 1003] | – | < 0.05 | – | – | < 0.05 | < 10 | < 10 | –
CCN1c2ncc(CCOc3ccc(C(=O)Nc4cccc(CC(=O)O)c4)cc3C)cc2C(=O)N(C)c2cccnc21 [Entry 3010] | < 0.05 | < 0.05 | – | 10 to 50 | – | – | – | 10 to 50
Cc1cc(-c2ccc(CC(=O)O)cc2)ccc1OCCc1cnc2c(c1)C(=O)N(C)c1cccnc1N2 [Entry 1059] | – | < 0.05 | – | – | > 0.1 | < 10 | > 50 | –
CCN1c2ncc(CCOc3ccc(-c4ccc(C(=O)O)cc4)cc3F)cc2C(=O)N(C)c2cccnc21 [Entry 1004] | – | < 0.05 | – | – | > 0.1 | < 10 | > 50 | –
CCN1c2ncc(CCOc3ccc(C(=O)NC(C)(C)C(=O)O)cc3C)cc2C(=O)N(C)c2cccnc21 [Entry 4012] | 0.05 to 0.1 | < 0.05 | 10 to 50 | > 50 | – | – | – | –
CCN1c2ncc(CCOc3ccc(C(=O)Nc4ccc(CC(=O)O)cc4)cc3C)cc2C(=O)Nc2c(C)ccnc21 [Entry 3018] | < 0.05 | < 0.05 | – | > 50 | – | – | – | 10 to 50
